The supplement of paper PMC10307832

How the values were obtained:
Assay in all cases: relative viability (nuclei count vs DMSO), 5 days (fraction); higher = more cells survive
[1] = test system: LU99A
Method in brief: (§1)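 Five library-drug doses in √10 steps were combined with a fixed anchor-drug dose, or a single drug was given alone, by pin tool to lung cancer cell lines in 1536-well plates the day after seeding. Nuclei were stained and counted after 5 days. Relative viability is the nuclei count in treated wells over that in vehicle wells, taken as the median of duplicate plates.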

[2] = test system: NCI-H2023
Method in brief: as §1

[3] = test system: NCI-H1651
Method in brief: as §1

[4] = test system: NCI-H1355
Method in brief: as §1

[5] = test system: HARA
Method in brief: as §1

[6] = test system: HCC-15
Method in brief: as §1

[7] = test system: NCI-H2126
Method in brief: as §1

[8] = test system: UMC-11
Method in brief: as §1

[9] = test system: NCI-H1993
Method in brief: as §1

[10] = test system: PC-14
Method in brief: as §1

[11] = test system: NCI-H650
Method in brief: as §1

[12] = test system: NCI-H1915
Method in brief: as §1

[13] = test system: LC-2-ad
Method in brief: as §1

[14] = test system: EPLC-272H
Method in brief: as §1

[15] = test system: HOP-62
Method in brief: as §1

[16] = test system: NCI-H2085
Method in brief: as §1

[17] = test system: HCC-44
Method in brief: as §1

[18] = test system: NCI-H838
Method in brief: as §1

[19] = test system: SW 1573
Method in brief: as §1

[20] = test system: COR-L23
Method in brief: as §1

[21] = test system: NCI-H2347
Method in brief: as §1

Q: Which relative viability ([1]; first compound 0.005 µM) does the source give for `COc1cc2nccc(Oc3ccc(NC(=O)Nc4cc(C)on4)c(Cl)c3)c2cc1OC` [Tivozanib] + CC(=O)Nc1cccc(-n2c(=O)n(C3CC3)c(=O)c3c(Nc4ccc(I)cc4F)n(C)c(=O)c(C)c32)c1 [Trametinib] (partner 0.02 µM) here?
A: Its relative viability is 0.626.

Q: And the relative viability ([1]; first compound 0.01581 µM)?
A: The relative viability was 0.496.

Q: And the relative viability ([1]; first compound 0.05 µM)?
A: Its relative viability is 0.61.

Q: And the relative viability ([1]; first compound 0.1581 µM)?
A: Its relative viability is 0.396.

Q: What about the relative viability ([1]; first compound 0.5 µM) of the same molecule?
A: Its relative viability is 0.563.

Q: What about the relative viability ([2]; first compound 0.005 µM) of the same molecule?
A: The relative viability was 0.526.

Q: And the relative viability ([2]; first compound 0.01581 µM)?
A: The relative viability was 0.603.

Q: What about the relative viability ([2]; first compound 0.05 µM) of the same molecule?
A: Its relative viability is 0.606.

Q: What about the relative viability ([2]; first compound 0.1581 µM) of the same molecule?
A: Its relative viability is 0.61.

Q: What about the relative viability ([2]; first compound 0.5 µM) of the same molecule?
A: The relative viability was 0.498.

Q: And the relative viability ([3]; first compound 0.005 µM)?
A: Its relative viability is 0.816.

Q: And the relative viability ([3]; first compound 0.01581 µM)?
A: Its relative viability is 0.808.

Q: What about the relative viability ([3]; first compound 0.05 µM) of the same molecule?
A: Its relative viability is 0.821.

Q: And the relative viability ([3]; first compound 0.1581 µM)?
A: The relative viability was 0.866.

Q: What about the relative viability ([3]; first compound 0.5 µM) of the same molecule?
A: The relative viability was 0.828.

Q: And the relative viability ([4]; first compound 0.005 µM)?
A: The relative viability was 0.413.

Q: What about the relative viability ([4]; first compound 0.01581 µM) of the same molecule?
A: Its relative viability is 0.432.

Q: What about the relative viability ([4]; first compound 0.05 µM) of the same molecule?
A: The relative viability was 0.455.

Q: What about the relative viability ([4]; first compound 0.1581 µM) of the same molecule?
A: Its relative viability is 0.33.

Q: And the relative viability ([4]; first compound 0.5 µM)?
A: The relative viability was 0.408.

Q: And the relative viability ([5]; first compound 0.005 µM)?
A: The relative viability was 0.628.

Q: What about the relative viability ([5]; first compound 0.01581 µM) of the same molecule?
A: Its relative viability is 0.817.

Q: And the relative viability ([5]; first compound 0.05 µM)?
A: Its relative viability is 0.615.

Q: What about the relative viability ([5]; first compound 0.1581 µM) of the same molecule?
A: The relative viability was 1.06.

Q: And the relative viability ([5]; first compound 0.5 µM)?
A: The relative viability was 0.744.

Q: And the relative viability ([6]; first compound 0.005 µM)?
A: The relative viability was 0.391.

Q: What about the relative viability ([6]; first compound 0.01581 µM) of the same molecule?
A: The relative viability was 0.365.

Q: What about the relative viability ([6]; first compound 0.05 µM) of the same molecule?
A: Its relative viability is 0.364.

Q: What about the relative viability ([6]; first compound 0.1581 µM) of the same molecule?
A: Its relative viability is 0.422.

Q: What about the relative viability ([6]; first compound 0.5 µM) of the same molecule?
A: The relative viability was 0.395.

Q: And the relative viability ([7]; first compound 0.005 µM)?
A: Its relative viability is 0.595.

Q: And the relative viability ([7]; first compound 0.01581 µM)?
A: The relative viability was 0.556.

Q: What about the relative viability ([7]; first compound 0.05 µM) of the same molecule?
A: Its relative viability is 0.567.

Q: What about the relative viability ([7]; first compound 0.1581 µM) of the same molecule?
A: Its relative viability is 0.444.

Q: And the relative viability ([7]; first compound 0.5 µM)?
A: The relative viability was 0.555.

Q: And the relative viability ([8]; first compound 0.005 µM)?
A: The relative viability was 0.66.

Q: And the relative viability ([8]; first compound 0.01581 µM)?
A: The relative viability was 0.67.

Q: What about the relative viability ([8]; first compound 0.05 µM) of the same molecule?
A: Its relative viability is 0.754.

Q: What about the relative viability ([8]; first compound 0.1581 µM) of the same molecule?
A: Its relative viability is 0.533.

Q: And the relative viability ([8]; first compound 0.5 µM)?
A: Its relative viability is 0.529.

Q: What about the relative viability ([9]; first compound 0.005 µM) of the same molecule?
A: The relative viability was 0.562.

Q: And the relative viability ([9]; first compound 0.01581 µM)?
A: The relative viability was 0.354.

Q: And the relative viability ([9]; first compound 0.05 µM)?
A: Its relative viability is 0.625.

Q: What about the relative viability ([9]; first compound 0.1581 µM) of the same molecule?
A: Its relative viability is 0.63.

Q: And the relative viability ([9]; first compound 0.5 µM)?
A: Its relative viability is 0.502.

Q: And the relative viability ([10]; first compound 0.005 µM)?
A: The relative viability was 0.654.

Q: And the relative viability ([10]; first compound 0.01581 µM)?
A: The relative viability was 0.766.

Q: What about the relative viability ([10]; first compound 0.05 µM) of the same molecule?
A: Its relative viability is 0.844.

Q: And the relative viability ([10]; first compound 0.1581 µM)?
A: The relative viability was 0.84.

Q: And the relative viability ([10]; first compound 0.5 µM)?
A: The relative viability was 0.751.

Q: What about the relative viability ([11]; first compound 0.005 µM) of the same molecule?
A: Its relative viability is 0.942.

Q: What about the relative viability ([11]; first compound 0.01581 µM) of the same molecule?
A: Its relative viability is 1.05.

Q: What about the relative viability ([11]; first compound 0.05 µM) of the same molecule?
A: The relative viability was 1.05.

Q: What about the relative viability ([11]; first compound 0.1581 µM) of the same molecule?
A: The relative viability was 0.97.

Q: What about the relative viability ([11]; first compound 0.5 µM) of the same molecule?
A: The relative viability was 0.909.

Q: And the relative viability ([12]; first compound 0.005 µM)?
A: The relative viability was 0.318.

Q: And the relative viability ([12]; first compound 0.01581 µM)?
A: Its relative viability is 0.305.

Q: What about the relative viability ([12]; first compound 0.05 µM) of the same molecule?
A: Its relative viability is 0.3.

Q: And the relative viability ([12]; first compound 0.1581 µM)?
A: The relative viability was 0.273.

Q: And the relative viability ([12]; first compound 0.5 µM)?
A: Its relative viability is 0.304.

Q: What about the relative viability ([13]; first compound 0.005 µM) of the same molecule?
A: The relative viability was 0.91.

Q: And the relative viability ([13]; first compound 0.01581 µM)?
A: Its relative viability is 0.849.

Q: And the relative viability ([13]; first compound 0.05 µM)?
A: The relative viability was 0.888.

Q: What about the relative viability ([13]; first compound 0.1581 µM) of the same molecule?
A: Its relative viability is 0.601.

Q: What about the relative viability ([13]; first compound 0.5 µM) of the same molecule?
A: The relative viability was 0.497.

Q: What about the relative viability ([14]; first compound 0.005 µM) of the same molecule?
A: The relative viability was 0.243.

Q: What about the relative viability ([14]; first compound 0.01581 µM) of the same molecule?
A: The relative viability was 0.277.

Q: What about the relative viability ([14]; first compound 0.05 µM) of the same molecule?
A: The relative viability was 0.27.

Q: What about the relative viability ([14]; first compound 0.1581 µM) of the same molecule?
A: Its relative viability is 0.235.

Q: What about the relative viability ([14]; first compound 0.5 µM) of the same molecule?
A: The relative viability was 0.246.

Q: What about the relative viability ([15]; first compound 0.005 µM) of the same molecule?
A: Its relative viability is 0.343.

Q: And the relative viability ([15]; first compound 0.01581 µM)?
A: The relative viability was 0.398.

Q: And the relative viability ([15]; first compound 0.05 µM)?
A: The relative viability was 0.439.

Q: What about the relative viability ([15]; first compound 0.1581 µM) of the same molecule?
A: The relative viability was 0.377.

Q: What about the relative viability ([15]; first compound 0.5 µM) of the same molecule?
A: Its relative viability is 0.502.

Q: And the relative viability ([16]; first compound 0.005 µM)?
A: Its relative viability is 0.51.

Q: What about the relative viability ([16]; first compound 0.01581 µM) of the same molecule?
A: The relative viability was 0.602.

Q: What about the relative viability ([16]; first compound 0.05 µM) of the same molecule?
A: The relative viability was 0.543.

Q: What about the relative viability ([16]; first compound 0.1581 µM) of the same molecule?
A: Its relative viability is 0.437.

Q: And the relative viability ([16]; first compound 0.5 µM)?
A: Its relative viability is 0.511.

Q: What about the relative viability ([17]; first compound 0.005 µM) of the same molecule?
A: The relative viability was 0.992.

Q: What about the relative viability ([17]; first compound 0.01581 µM) of the same molecule?
A: The relative viability was 1.09.

Q: And the relative viability ([17]; first compound 0.05 µM)?
A: The relative viability was 1.05.

Q: What about the relative viability ([17]; first compound 0.1581 µM) of the same molecule?
A: Its relative viability is 1.09.

Q: And the relative viability ([17]; first compound 0.5 µM)?
A: The relative viability was 1.07.

Q: What about the relative viability ([18]; first compound 0.005 µM) of the same molecule?
A: Its relative viability is 0.514.

Q: What about the relative viability ([18]; first compound 0.01581 µM) of the same molecule?
A: The relative viability was 0.555.

Q: And the relative viability ([18]; first compound 0.05 µM)?
A: The relative viability was 0.552.

Q: And the relative viability ([18]; first compound 0.1581 µM)?
A: Its relative viability is 0.34.

Q: What about the relative viability ([18]; first compound 0.5 µM) of the same molecule?
A: The relative viability was 0.504.

Q: And the relative viability ([19]; first compound 0.005 µM)?
A: The relative viability was 0.541.

Q: And the relative viability ([19]; first compound 0.01581 µM)?
A: Its relative viability is 0.644.

Q: What about the relative viability ([19]; first compound 0.05 µM) of the same molecule?
A: The relative viability was 0.464.

Q: And the relative viability ([19]; first compound 0.1581 µM)?
A: The relative viability was 0.457.

Q: What about the relative viability ([19]; first compound 0.5 µM) of the same molecule?
A: The relative viability was 0.416.

Q: And the relative viability ([20]; first compound 0.005 µM)?
A: The relative viability was 0.542.

Q: And the relative viability ([20]; first compound 0.01581 µM)?
A: The relative viability was 0.577.

Q: What about the relative viability ([20]; first compound 0.05 µM) of the same molecule?
A: Its relative viability is 0.588.

Q: And the relative viability ([20]; first compound 0.1581 µM)?
A: Its relative viability is 0.421.

Q: What about the relative viability ([20]; first compound 0.5 µM) of the same molecule?
A: The relative viability was 0.545.

Q: And the relative viability ([21]; first compound 0.005 µM)?
A: The relative viability was 0.311.

Q: What about the relative viability ([21]; first compound 0.01581 µM) of the same molecule?
A: The relative viability was 0.27.

Q: What about the relative viability ([21]; first compound 0.05 µM) of the same molecule?
A: Its relative viability is 0.294.

Q: What about the relative viability ([21]; first compound 0.1581 µM) of the same molecule?
A: The relative viability was 0.317.

Q: And the relative viability ([21]; first compound 0.5 µM)?
A: Its relative viability is 0.284.
